Experimental data published in patent US20120136033A1, “Small Molecule Antagonists of Phosphatidylinositol-3,4,5-Triphosphate (PIP3) and Uses Thereof” (President and Fellows of Harvard College, priority 2009, published 2012).

How the values were obtained:
[1] = system: SV40-transformed mouse adult lung fibroblasts; assay: loss of viability, Akt1-expressing vs Akt1-3 triple knockout lung fibroblasts; type: cell-based; details: P<0.01
Text: Shaughnessy J D (2008) Nature 454:172-3; Weinstein I G (2002) Science 297:63-4. Therefore, the possibility that PIT-1 may cause preferential cell death in the cells containing elevated PIP3 levels was examined. […] Li D M et al. (1998) Proc Natl Acad Sci USA 95:15406-11. […] This observation is consistent with the notion that PTEN-deficient cancer cells become overly dependent on PIP3 signaling and, therefore, are hypersensitive to disruption of this pathway compared to wild-type PTEN-expressing cells. Neshat M S et al. (2001) Proc Natl Acad Sci USA 98:10314-9.

human cancer cells = assay: transwell (Boyden chamber) migration of cancer cells; type: cell-based
Experimental: Two models of cell migration were used, a transwell migration model and a wound closure model. Migration of cancer and endothelial cells was evaluated using 24-transwell Boyden chamber (Costar, Bedford, Mass.) with a polystyrene membrane (6.5 mm diameter, 10 μm thickness, and 8 μm pore size). Cells were suspended in serum-free media and seeded in the upper compartment of each well (2×10^4 cells/well) in the presence or absence of different compounds at the indicated concentrations. The lower compartment contained 600 μl of serum-free culture media supplemented with growth factors. After an 8-hr incubation at 37° C., cells were fixed and stained with 0.1% crystal violet. Non-migrating cells on the upper surface of the filter were removed, and the stained cells that migrated to the lower side were photographed using a phase-contrast microscope (Nikon, Japan) in five random fields. The cells were lysed with 10% acetic acid, and colorimetric determination was made at 595 nm using Wallac Victor 3 plate reader.

cells = assay: cell death with inhibitors of mitochondrial respiration and ATP synthase; type: cell-based
Text: Elstrom R L et al. (2004) Cancer Res 64:3892-9.

CD31 = assay: tumor angiogenesis in vivo, microvasculature marker CD31; details: mouse
Experimental: Tumor tissues were fixed in phosphate-buffered formalin, embedded in paraffin, cut in 4 μM thickness, and applied to slides. The slides were deparaffinized in xylenes using three changes for 5 min each, and hydrated gradually through graded alcohols: 100% ethanol twice for 10 min each, 95% ethanol twice for 10 min each, and then deionized water for 1 min with stirring. For antigen unmasking, slides were placed in a container, covered with 10 mM sodium citrate buffer, pH 6.0, and heated in a convection steamer for 1 hr. The slides were washed in deionized water three times for 2 min each, blocked with 5% normal goat blocking serum for 30 min, incubated with goat anti-CD31 primary antibody for 1 hr, and incubated with an Alexa Fluor 488-conjugated secondary antibody for 30 min. The slides were analyzed and photographed using a fluorescent microscope. TUNEL staining was performed using FragEL kit according to manufacturer's instructions (Calbiochem).
In view of the significant inhibitory effect of PIT-1 on angiogenesis observed in vitro, the extent of angiogenesis in DM-PIT-1-treated tumors was examined in vivo using microvasculature marker CD31. […] Suppression of angiogenesis also likely contributed to the suppression of tumor growth by DM-PIT-1 treatment in vivo, considering a relatively low dose of the compound used in the experiments.

PI3K-PDK1-Akt pathway = PI3K-PDK1-Akt pathway phosphorylation events in U87MG cells; type: cell-based, human
Experimental: The effect of PIT-1 on PIP3-mediated signaling was examined in U87MG glioblastoma cells, which show elevated basal levels of PIP3 due to the loss of PTEN. Pore N et al. (2003) Cancer Res 63:236-41.

[2] = solubility / precipitation; type: physicochemical; details: 300 μM, unencapsulated, cell media
Text: This method has been reported to be efficient for in vivo targeting of cancer cells by other poorly soluble anti-cancer drugs, such as m-porphyrin, tamoxifen, and taxol. Gao Z et al. (2003) J Drug Target 11:87-92; Torchilin V P et al. (2003) Proc Natl Acad Sci USA 100:6039-44.
The size of the DM-PIT-1-loaded micelles was about 15 nm with a narrow size distribution.

U87MG cells [3] = assay: U87MG cell viability, ATP assay; type: cell-based, human
Experimental: U87MG cells were incubated with PITs (12.5-100 μM) for 48 hr. Cell viability was determined using ATP assay.
Based on the critical role of PIP3-dependent Akt signaling in the regulation of cell survival, the effect of PIT-1 on the cancer cell viability was tested. Cancer cells were seeded into 96-well plates (white plates for ATP assay; black plates for fluorescent assay; clear plates for MTS assay) at the density of 5-10×10^3 cells per well in 100 μl of the appropriate media. Compounds were added at a series of concentrations and incubated for different times. For the ATP assay, a luminescence-based commercial kit (CellTiter-Glo, Promega, Madison, Wis.) was used. Thirty microliters of cell lysis/ATP detection reagent was added to each well, mixed for 10 min at room temperature, and the luminescence was measured using a Wallac Victor 3 plate reader (Perkin-Elmer, Wellesley, Mass.). For the MTS assay, a CellTiter 96 AQueous Non-Radioactive Cell Proliferation Assay Kit (Promega, Madison, Wis., USA) was used. Twenty microliters of the combined MTS/PMS solution was added into each well, incubated for 4 hr at 37° C., and the absorbance at 490 nm was measured using a Wallac Victor 3 plate reader. For the Sytox cell death assay, measuring loss of plasma membrane integrity, cells were incubated with 1 μM Sytox Green reagent (Molecular Probes, Eugene, Oreg.) for 30 min at 37° C. and the fluorescence intensity was measured using Wallac Victor 3 plate reader with excitation at 485 nm and emission at 545 nm. Next, 5 μl of 20% (v/v) Triton X-100 solution was added to each well and incubated for 1 hr at 37° C., and the signal was measured again. The ratio of values (percentage of dead cells in each well) before and after Triton X-100 treatment was calculated and normalized to the relevant controls not subjected to the cytotoxic stimuli. IC50 values were determined using Origin6 software (MicroCal, LLC, Northampton, Mass.).

4T1 breast cancer = assay: syngeneic 4T1 breast tumor growth in BALB/c mice; type: in vivo, mouse
Experimental: After inoculation of tumor cells, DM-PIT-1 or DM-PIT-1-M were administered i.v. daily at doses of 0.4 mg/kg and 1 mg/kg, respectively, for 8 days. Tumor volumes as measured every two days are shown.
The effect of intravenous (i.v.) administration of both unencapsulated DM-PIT-1 in PBS and DM-PIT-1-M on the syngeneic 4T1 breast cancer growth in BALB/c mice was examined. 4T1 metastatic breast cancer cells were first cultured in vitro in DMEM medium containing 10% FBS and antibiotics. After re-suspension in PBS, the 4T1 cancer cells (8×10^4) were injected s.c. into axillary regions of BALB/c mice. The treatment with PIT-1 began on day 11 after inoculation of tumor cells, i.e., when tumors were palpable, but before tumors are precisely measurable (˜50 mm^3). Working solutions of all PIT-1-formulations were made in sterile 0.9% NaCl before injection into mice. Free DM-PIT-1 and micellar DM-PIT-1 were administered i.v. daily at doses of 0.4 and 1 mg/kg, respectively, for 8 days. If the tumor size reached approx. 1000 mm^3, the mice were euthanized using carbon dioxide (CO2) prior to cervical dislocation. Seven mice per group were used. The tumor volume (V) was measured every two days by microcaliper for 8 days. Tumor volume was calculated according to the formula ([…])/2, where α is the longest and b is the shortest diameter of tumor, respectively.

[4] = system: PH domains of Akt, PDK1, and IRS1; details: cited from earlier work
[5] = cited from earlier work
U87MG cells [6] = assay: sensitization of U87MG cells to killing by TRAIL, ATP assay; type: cell-based, human
Experimental: FIG. 10 is a bar graph depicting that PITs, as well as Akt inhibitor VIII, sensitize U87MG cells to killing by TRAIL. U87MG cells were incubated with 50 μM PIT-1, PIT-2, PIT-1i-1 or 10 μM Akt inhibitor VIII in the presence or absence of 10 ng/ml TRAIL for 48 hr, followed by cell viability analysis using ATP assay.
Based on the critical role of PIP3-dependent Akt signaling in the regulation of cell survival, the effect of PIT-1 on the cancer cell viability was tested. Cancer cells were seeded into 96-well plates (white plates for ATP assay; black plates for fluorescent assay; clear plates for MTS assay) at the density of 5-10×10^3 cells per well in 100 μl of the appropriate media. […] For the ATP assay, a luminescence-based commercial kit (CellTiter-Glo, Promega, Madison, Wis.) was used. Thirty microliters of cell lysis/ATP detection reagent was added to each well, mixed for 10 min at room temperature, and the luminescence was measured using a Wallac Victor 3 plate reader (Perkin-Elmer, Wellesley, Mass.). […] Twenty microliters of the combined MTS/PMS solution was added into each well, incubated for 4 hr at 37° C., and the absorbance at 490 nm was measured using a Wallac Victor 3 plate reader. […] Next, 5 μl of 20% (v/v) Triton X-100 solution was added to each well and incubated for 1 hr at 37° C., and the signal was measured again. […]

## O=c1[nH]c2ccccc2n1C1CCN(Cc2ccc(-c3nc4cc5[nH]cnc5cc4nc3-c3ccccc3)cc2)CC1 [Akt kinase inhibitor VIII, reference compound]
[1]
  loss of viability in Akt1-expressing fibroblasts compared to Akt1-3 triple knockout cells: comparable
Human cancer cells; transwell / wound healing models
  inhibition of cancer cell migration: lack thereof
cells
  synergy with oligomycin, antimycin A and rotenone in inducing cell death: synergized

## Cc1cc(C)cc(C(=O)NC(=S)Nc2cc([N+](=O)[O-])ccc2O)c1 [DM-PIT-1]
CD31
  CD31 loci in treated tumors (angiogenesis in vivo): attenuation of a number of CD31 loci
PI3K-PDK1-Akt pathway
  activity compared to PIT-1 in inhibition of PI3K-PDK1-Akt signaling: increased activity
Human cancer cells
  activity compared to PIT-1 in inhibition of cell migration: increased activity
[2]
  precipitation in cell media at 300 μM: significant precipitation
U87MG cells [3]
  activity compared to PIT-1 in inducing cell death in U87MG cells: increased activity
4T1 breast cancer; 8-day administration, P<0.01
  tumor growth in vivo compared to control: significantly attenuated tumor growth
4T1 breast cancer; day 8, i.v. daily, free 0.4 mg/kg, micellar 1 mg/kg
  reduction of tumor volume as compared to control: 58.1%
4T1 breast cancer; day 8, i.v. daily, free 0.4 mg/kg, micellar 1 mg/kg, control 902.5±153
  tumor volume: 380±52.3 mm^3

## CC1=NN(C(=O)c2ccc(Cl)cc2)C(=O)C1N=Nc1ccc(S(=O)(=O)Nc2ncccn2)cc1 (centres unmarked) [NSC 348900, 4-[1-(4-chlorobenzoyl)-3-methyl-5-oxo-4,5-dihydro-1H-pyrazol-4-ylazo]-N-pyrimidine-2-yl-benzenesulfonamide]
[4]
  interaction with PH domains of Akt, PDK1, and IRS1: capable of interacting
[5]
  in vivo anti-tumor activity: lacked in vivo anti-tumor activity

B1: TRAIL: Tumor necrosis factor (TNF)-related apoptosis-inducing ligand, 281 amino acid-long member of the TNF family of cytokines (protein, UniProt P50591 1-281, looked up)
chain: MAMMEVQGGPSLGQTCVLIVIFTVLLQSLCVAVTYVYFTNELKQMQDKYSKSGIACFLKEDDSYWDPNDEESMNSPCWQVKWQLRQLVRKMILRTSEETISTVQEKQQNISPLVRERGPQRVAAHITGTRGRSNTLSSPNSKNEKALGRKINSWESSRSGHSFLSNLHLRNGELVIHEKGFYYIYSQTYFRFQEEIKENTKNDKQMVQYIYKYTSYPDPILLMKSARNSCWSKDAEYGLYSIYQGGIFELKENDRIFVSVTNEHLIDMDHEASFFGAFLVG
modifications: full-length
notes: Tumor necrosis factor (TNF)-related apoptosis-inducing ligand, 281 amino acid-long member of the TNF family of cytokines
U87MG cells [6]
  sensitivity of U87MG cells to TRAIL alone: entirely resistant
